Results: patent publication US10899741B2, “3,4-bipyridyl pyrazole derivative, and preparation method therefor and medical application thereof” (Jiangsu Hengrui Medicine Co., Ltd., priority 2016, dated 2021)
pIC50: −log10 of the molar value.

Tests used:
[1] = system: Smad signaling pathway of TGFβRI; assay: Inhibition of Smad signaling pathway of TGFβRI (3TP-lux luciferase reporter in HepG2 cells); assay type: cell-based; conditions: HepG2, 3TP-lux plasmid, 18 hours; for pIC50: Homo sapiens
Experimental: The inhibition effect of the compounds of the present invention on Smad signaling pathway of TGFβRI was determined by the following in vitro test.
The inhibition effect of the compounds of the present invention on Smad signaling pathway of TGFβRI was determined by the following experimental method:
On a 96-well plate, 100 μL of HepG2 cell (TCHu 72, Cell Bank of Typical Culture Collection Committee of Chinese Academy of Sciences) was seeded on an EMEM medium containing 10% FBS (42360-099, Gibco) in each well. The seeding density is 2.5×10^4 cells/well. The cells were incubated overnight at 37° C., in 5% CO2. Each well was replaced with fresh EMEM medium containing 10% FBS. 0.1 μg of 3TP-lux plasmid (11767, Biovector Science Lab, Inc.) was transfected in each well. The cells were further incubated for 24 hours at 37° C., in 5% CO2. Each well was replaced with 90 μL of EMEM medium containing 0.5% FBS, then the cells were starved for 6 hours. The compounds were formulated as a 20 mM stock solution, which was diluted in gradient to a 400× concentration with 100% DMSO, and further 40-fold diluted with EMEM containing 0.5% FBS. The cell culture plate was taken out, then 10 μl of diluted compound or control (0.25% DMSO) was added to each well respectively. The plate was shaken gently, then incubated for 18 hours in an incubator at 37° C., in 5% CO2. Finally, 100 μl of detection reagent ONE-Glo™ Luciferase Assay (E6110, Promega) was added to each well, and the plate was placed in dark at room temperature for 10 minutes. The chemiluminescence signal values were measured with a Victor 3.0 (PerkinElmer). The IC50 values of the compounds were calculated using Graphpad Prism software based on each concentration of the compound and the corresponding signal value thereof.

NIH3T3 cell = assay: Inhibition of NIH3T3 cell proliferation (CellTiter-Glo); assay type: cell-based; conditions: NIH3T3, 72 hours, 0.5% FBS; for pIC50: Mus musculus
Experimental: The inhibition effect of the compounds of the present invention on NIH3T3 cell proliferation was determined by the following in vitro test.
The inhibition effect of the compounds of the present invention on NIH3T3 cell proliferation was determined by the following experimental method:
On a 96-well white plate with transparent bottom (3903, Corning), 100 μL of NIH3T3 cell (GNM6, Cell Bank of Typical Culture Collection Committee of Chinese Academy of Sciences) was seeded in a DMEM medium containing 10% FBS (SH1-30243.01, GE) in each well. The seeding density is 2000 cells/well. The cells were incubated overnight at 37° C., in 5% CO2. After overnight incubation, each well was replaced with 90 μL of DMEM medium containing 0.5%0 FBS. 10 μl of a 3-fold gradient dilution of the compounds with DMEM medium containing 0.5% FBS was then added, and the plate was incubated for 72 hours in a cell incubator at 37° C., in 5% CO2. Finally, 50 μL of CellTiter-Glo (G7573, Promega) was added to each well. After incubation for 10 minutes at room temperature, the chemiluminescence signal values were measured with a Victor 3 microplate reader (PerkinElmer). The IC50 values of the compounds were calculated using Graphpad Prism software based on each concentration of the compound and the corresponding signal value thereof.

TGFβRI kinase ALK5 = TGFβRI kinase ALK5 (Homo sapiens (Human), UniProt P36897); assay: Inhibition of TGFβRI kinase ALK5 activity (ADP-Glo kit); assay type: biochemical; conditions: ATP 50 μM, 27° C. 2.5 hours
TGFβRI kinase ALK5, sequence (P36897 34-503): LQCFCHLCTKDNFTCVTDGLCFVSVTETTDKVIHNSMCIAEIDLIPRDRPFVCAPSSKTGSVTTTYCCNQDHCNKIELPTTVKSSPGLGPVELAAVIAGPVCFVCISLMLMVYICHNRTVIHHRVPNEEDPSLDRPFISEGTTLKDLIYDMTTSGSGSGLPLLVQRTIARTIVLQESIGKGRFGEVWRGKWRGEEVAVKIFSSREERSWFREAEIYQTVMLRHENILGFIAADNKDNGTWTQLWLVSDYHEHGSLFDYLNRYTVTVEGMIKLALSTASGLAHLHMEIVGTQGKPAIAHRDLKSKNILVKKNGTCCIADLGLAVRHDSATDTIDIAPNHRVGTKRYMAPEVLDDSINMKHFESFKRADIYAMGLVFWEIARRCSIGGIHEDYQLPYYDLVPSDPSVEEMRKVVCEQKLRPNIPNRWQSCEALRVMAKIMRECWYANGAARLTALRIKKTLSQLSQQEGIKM
Experimental: The inhibition effect of TGFβRI kinase activity in vitro was determined by the following method.
The inhibition effect of the compounds of the present invention on TGFβRI kinase ALK5 activity was determined by the following experimental method:
TGFβRI kinase assay kit (V4093, Promega) was used to assay enzyme activity. 2 μl of enzyme solution (the final concentration of enzyme in the reaction system was 2 ng/μL) formulated with reaction buffer (40 mM Tris pH 7.5, 20 mM MgCl2, 0.1 mg/ml BSA), 1 μl of a 3-fold gradient dilution of the compounds dissolved in 5% DMSO, and 2 μl of a mixed solution of ATP and TGFβRI substrate peptide (the final concentration of ATP was 50 μM, and the final concentration of substrate was 0.2 μg/μL) were added successively to a 384-well plate (4514, Corning). After reaction at 27° C. for 2.5 hours, 5 μl of ADP-Glo solution in the kit was added to each well, then the plate was placed at 27° C. for 40 minutes. 10 μl of kinase assay reagent was then added to each well, then the plate was placed at 27° C. for 30 minutes. The chemiluminescence signal values were measured with a Victor 3 (PerkinElmer) multi-function microplate reader. The IC50 values of the compounds for enzyme inhibition were calculated using Graphpad prism software based on each concentration of the compound and the corresponding signal value thereof.

| SMILES | Maximum inhibition rate (%) [1] | pIC50 [1] | pIC50 (NIH3T3 cell) | Maximum inhibition rate (%) (NIH3T3 cell) | pIC50 (TGFβRI kinase ALK5) |
| --- | --- | --- | --- | --- | --- |
| Cc1cccc(-c2nn(C3CCCC3)cc2-c2ccnc(-c3ccc(S(C)(=O)=O)cc3)c2)n1 [Example 3, 4-(1-Cyclopentyl-3-(6-methylpyridin-2-yl)-1H-pyrazol-4-yl)-2-(4-(methylsulfonyl)phenyl)pyridine] | 101% | 7.24 | 6.44 | 105% | 6.62 |
| Cc1cccc(-c2nn(C3CC3)cc2-c2ccnc(-c3ccc(C#N)cc3)c2)n1 [Example 7, 4-(4-(1-Cyclopropyl-3-(6-methylpyridin-2-yl)-1H-pyrazol-4-yl)pyridin-2-yl)benzonitrile] | 98% | 6.77 | – | – | – |
| Cc1cccc(-c2nn([C@@H]3CCN(S(C)(=O)=O)C3)cc2-c2ccnc(-c3ccc(S(C)(=O)=O)cc3)c2)n1 [Example 8, (R)-4-(3-(6-Methylpyridin-2-yl)-1-(1-(methylsulfonyl)pyrrolidin-3-yl)-1H-pyrazol-4-yl)-2-(4-(methylsulfonyl)phenyl)pyridine] | 98% | 6.66 | 6.31 | 114% | 6.43 |
